Data taken from patent publication US8202987B2, “Method of obtaining conformational polymorph of sucrose” (National Central University, priority 2007, dated 2012).

Assay type: physicochemical
Method: Then an anti-solvent method is used at 60° C. to add methanol into the saturated sucrose solution for obtaining the new sucrose through re-crystallization. The new sucrose obtained has a melting point at 150° C., which is lower then 190° C. for the original sucrose. […] Therefore, the present invention contributes to sugar industry, drug industry and food industry.
Conclusively, a novel conformational polymorph of sucrose is obtained according to the present invention.

Compound: OC[C@H]1O[C@@](CO)(O[C@H]2O[C@H](CO)[C@@H](O)[C@H](O)[C@H]2O)[C@@H](O)[C@@H]1O [new sucrose, sucrose]
- solubility relative to the original sucrose: lower solubility than the original sucrose
- stability relative to the original sucrose: higher stability than the original sucrose

Compound: OC[C@H]1O[C@@](CO)(O[C@H]2O[C@H](CO)[C@@H](O)[C@H](O)[C@H]2O)[C@@H](O)[C@@H]1O [sucrose]
- solubility: 2873 milligrams sucrose per milliliter water
